# Measured values from article PMC9497135, “Structure-Based Study to Overcome Cross-Reactivity of Novel Androgen Receptor Inhibitors” (Cells, 2022).
# Numbering of substitutions follows the chain as printed.
# Assays:
# T878A-AR mutant = biological target: T1, T878A-AR mutant (Homo sapiens, UniProt P10275, T878A); assay: Luciferase reporter assay, PC3 cells transfected with T878A-AR; format: cell-based; settings: in the presence and absence of R1881
# T1 construct: Full-length human wild type AR was cloned into pcDNA3.1 expression plasmid; expressed in transfected cells; host or cells: PC3
# T1 sequence (P10275 1-920 T878A): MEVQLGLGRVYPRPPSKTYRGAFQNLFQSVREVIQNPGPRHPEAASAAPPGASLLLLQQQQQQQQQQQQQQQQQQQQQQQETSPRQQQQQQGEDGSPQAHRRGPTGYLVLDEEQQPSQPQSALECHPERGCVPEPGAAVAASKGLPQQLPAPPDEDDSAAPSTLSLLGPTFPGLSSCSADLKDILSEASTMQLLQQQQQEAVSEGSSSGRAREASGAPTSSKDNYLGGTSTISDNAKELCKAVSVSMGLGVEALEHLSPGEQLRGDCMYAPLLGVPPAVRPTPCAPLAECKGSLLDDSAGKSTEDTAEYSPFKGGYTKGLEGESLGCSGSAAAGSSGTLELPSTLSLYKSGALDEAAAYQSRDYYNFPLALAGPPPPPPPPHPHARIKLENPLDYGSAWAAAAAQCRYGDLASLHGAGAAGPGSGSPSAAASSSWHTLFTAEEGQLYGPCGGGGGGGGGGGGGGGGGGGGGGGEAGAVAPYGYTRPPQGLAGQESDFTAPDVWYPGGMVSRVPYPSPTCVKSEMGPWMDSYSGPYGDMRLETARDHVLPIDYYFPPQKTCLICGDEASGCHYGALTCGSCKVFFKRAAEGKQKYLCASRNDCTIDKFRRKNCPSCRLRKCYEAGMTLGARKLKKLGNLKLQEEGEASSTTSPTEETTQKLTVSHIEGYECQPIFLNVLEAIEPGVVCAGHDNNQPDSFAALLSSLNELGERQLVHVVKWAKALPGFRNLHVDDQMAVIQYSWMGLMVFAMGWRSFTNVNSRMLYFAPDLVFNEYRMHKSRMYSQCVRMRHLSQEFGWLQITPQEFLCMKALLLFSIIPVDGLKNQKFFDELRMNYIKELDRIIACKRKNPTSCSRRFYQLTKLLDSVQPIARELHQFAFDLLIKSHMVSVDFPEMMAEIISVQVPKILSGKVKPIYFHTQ
# Procedure: Full-length human wild type AR was cloned into pcDNA3.1 expression plasmid (Invitrogen, Waltham, MA, USA) with a CMV promoter. The T878A mutant (T878A-AR) was generated with the Quikchange Mutagenesis Kit (Stratagene, San Diego, CA, USA) using hARWT plasmid as a template. Androgen-starved PC3 cells were seeded in 96-well plates (3000 cells/well) in RPMI 1640 + 5% CSS for 24 h followed by transfection with 50 ng of hARWT or hART878A along with 50 ng of ARR3tk-luciferase reporter construct (100 ng total plasmid DNA) and 0.3 µL/well TransIT20/20 transfection reagent (TT2020, Mirus, Madison, Wisconsin, WI, USA) for 48 h. […] Cell lysis was carried out with 60 µL 1X passive lysis buffer/well (Promega, Madison, Wisconsin, WI, USA). The luminescence from 20 µL of cell lysate and 50 µL of Luciferase assay reagent (Promega, Madison, Wisconsin, WI, USA) was recorded on a TECAN M200pro plate reader.
# [1] = test system: prostate-specific antigen (PSA) expression in LNCaP cells; assay: PSA assay in LNCaP cells; format: cell-based; settings: Homo sapiens, 72 h, with R1881, 3 days
# Procedure: The PSA assay was performed in parallel with the previous reporter eGFP assay and using the same plates. After 3 days incubation of LNCAP cells with R1881 and the test compound, 150 µL of the media was taken from each well and added to 150 µL of PBS. PSA levels were then evaluated using the Cobas e 411 analyzer instrument (Roche Diagnostics) according to the manufacturer’s instructions.
# wild type AR LBD = biological target: T2, wild type AR LBD (Homo sapiens, UniProt P10275); assay: Biolayer interferometry (BLI), wild type LBD; format: binding
# T2 construct: made in house; host or cells: E. coli BL21-DE3 co-transformed with pBirACm
# T2 sequence (P10275 669-900 limits assumed): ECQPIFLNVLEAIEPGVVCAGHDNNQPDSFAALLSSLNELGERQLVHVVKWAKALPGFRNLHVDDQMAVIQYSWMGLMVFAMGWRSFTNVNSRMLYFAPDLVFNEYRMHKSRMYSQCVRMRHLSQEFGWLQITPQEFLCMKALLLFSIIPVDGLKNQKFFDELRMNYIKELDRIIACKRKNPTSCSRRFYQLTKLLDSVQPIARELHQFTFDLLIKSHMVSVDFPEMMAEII
# Procedure: (§1) The direct reversible interaction between small molecules and the AR was quantified by BLI using OctetRED (ForteBio, Fremont, CA, USA). The wild type and T878A-LDB in fusion with an N-terminal (His)6-avidin ([…]) tag were expressed in E. coli BL21-DE3 cells co-transformed with pBirACm plasmid (Avidity), which expresses a biotin ligase leading to the biotynilation of the avidin tag on the LBD. Cells were grown in LB media at 37 °C to an OD600nm = 0.5 and then induced with 0.5 mM isopropyl-β-D-thiogalactoside. A measure of 20 µM of dihydrotestosterone (DHT) and 0.15 mM biotin were added and the cells were incubated at 16 °C for 18 to 20 h. Cells were then resuspended and lysed in buffer containing 500 mM Li2SO4, 50mM HEPES pH7.2, 10% Glycerol, 0.1% Octyl-beta-Glucoside, 20 µM of DHT, 5 mM β-mercaptoethanol, 10 mM imidazole and 0.1 mM phenylmethanesulfonyl fluoride. […] After an overnight dialysis against 150 mM Li2SO4, 50 mM HEPES pH7.2, 10% Glycerol, 0.1% Octyl-beta-Glucoside, 20 µM of DHT and 0.2 mM tris(2-carboxyethyl)phosphine, purified proteins at 50 µg/mL were bound to the super-streptavidin sensors overnight at 4 °C. The assay was performed at 20 °C in the dialysis buffer supplemented with 5% dimethyl sulfoxide (DMSO) which was also used as our reference measurement.
# T878A AR LBD = biological target: T3, T878A AR LBD (Homo sapiens, UniProt P10275, T878A); assay: Biolayer interferometry (BLI), T878A LBD; format: binding
# T3 construct: made in house; host or cells: E. coli BL21-DE3 co-transformed with pBirACm
# T3 sequence (P10275 669-900 T878A limits assumed): T2 sequence (P10275 669-900 limits assumed) with T210A
# Procedure: as §1
structure (smiles),measurement,setting,value
"COc1c(F)cccc1-c1csc(N2CCOCC2)n1 [VPC14368, 4-(4-(3-fluoro-2-methoxyphenyl)thiazol-2-yl)morpholine]",Concentration above which transcriptional activation of the T878A AR mutant is induced,T878A-AR mutant,higher than 0.4 µM
same,IC50,[1],0.13 µM
same,Direct binding to wild-type LBD by BLI,wild type AR LBD,confirmed at high concentrations and in a concentration-dependent manner
same,Concentration at which binding is seen (BLI),"wild type AR LBD; Figure 2, 50-300 µM tested",above 100 µM
same,Direct binding to T878A LBD by BLI,T878A AR LBD,confirmed at high concentrations and in a concentration-dependent manner
same,Concentration at which binding is seen (BLI),"T878A AR LBD; Figure 2, 50-300 µM tested",above 100 µM
